Test results from patent US20240122212A1 (SUNTORY HOLDINGS LIMITED, priority 2020, published 2024).

How the values were obtained:
[1] = Basic taste quality sensory evaluation by trained panelists, spitting test, against 6% sucrose control (Example 1); format: in vivo, human
Description: In each evaluation item, the rating on a scale of −3 point to 3 point was performed, with the case where there is no difference from the control solution being 0. Quicker in sweetness onset, higher sweetness intensity, shorter lingering sweet aftertaste, lower bitterness intensity, and shorter lingering bitter aftertaste compared to the control were rated near 3 points. Slower in sweetness onset, lower sweetness intensity, longer lingering sweet aftertaste, higher bitterness intensity, and longer lingering bitter aftertaste compared to the control were rated near −3 points. That is, the closer to 0 point, the closer to the control. The evaluation was carried out by those (4 persons) who received sensory trainings as panelists by spitting test. The amount of a sweet substance contained in each sample solution was adjusted to be equal to the control solution on the calculation. […] The energy (kcal/100 ml) was calculated from the amount of the sweetener added.

[2] = Degree of sweetness relative to sucrose
Description: The “sweetness intensity” means an intensity of sweetness of a substance. […] A numerical value obtained by multiplying the degree of sweetness by a concentration Brix value of glucose is the sweetness intensity of glucose in terms of sucrose. Thus, when a concentration of glucose in terms of sucrose is Brix 1.5, the sweetness intensity of glucose is 0.65×1.5=0.975. The sweetness intensity of a sweetener in terms of sucrose can be calculated from a degree of sweetness shown in the following table or a value of a known degree of sweetness.
For example, when the sweetness intensity of sucrose per unit concentration Brix 1 is defined as a degree of sweetness of 1, a degree of sweetness of rebaudioside D is about 200 to 250 (median value 225), a degree of sweetness of rebaudioside M is about 200 to 260 (median value 230), a degree of sweetness of rebaudioside B is about 325, a degree of sweetness of rebaudioside A is about 200 to 300 (median value 250), a degree of sweetness of rebaudioside N is about 200 to 250 (median value 225), a degree of sweetness of rebaudioside O is about 200 to 250 (median value 225), a degree of sweetness of rebaudioside E is about 70 to 80 (median value 75), a degree of sweetness of a Luo han guo extract (containing 40% of Mog V) is about 110 to 150 (median value 130), a degree of sweetness of mogroside V is about 240 to 300 (median value 270), and a degree of sweetness of thaumatin is about 2,000, and a degree of sweetness of brazzein is about 500 to 2,000 (median value 1,250). The numerical value obtained by multiplying these degrees of sweetness by a concentration (w/v % (considered to be the same as w/w % in the case of a beverage)) of the high-intensity sweetener in a fruit juice beverage is a sweetness intensity of the high-intensity sweetener. The relative ratio in degrees of sweetness of various sweeteners to the degree of sweetness of 1 of sucrose can be determined from a known sugar sweetness conversion table, and the like. In the present description, when a degree of sweetness is shown in a numerical value range, the median value may be used. However, a sweetener having different values in a degree of sweetness by literatures, a relative ratio in a degree of sweetness to the degree of sweetness of 1 of sucrose can be defined by a sensory test. Examples of such a sensory test include a method in which samples were prepared by adding sucrose having a sweetness intensity of Brix 3.0 to 5.0 in 0.5 increments to pure water, and of which a sucrose-added sample having a sweetness intensity equal to an aqueous solution of a sweetener in a predetermined concentration is selected.
Additionally, for a sweetener with a variable degree of sweetness as a sweetness intensity increases, degrees of sweetness in different concentrations are actually measured and plotted whereby a degree of sweetness in a predetermined concentration may be calculated from the obtained approximate curve.

[3] = scale −3 to 3, 0 = no difference from 6% sucrose control, D-allulose 8.57 w/v %, D-arabinose 10 w/v % in pure water, 4 panelists

O=C[C@@H](O)[C@H](O)[C@H](O)CO [D-Arabinose]
taste quality compared with aqueous solutions containing D-allulose ([1]; aqueous solutions, Example 1): lower bitterness intensity and shorter lingering bitter aftertaste with the taste quality closer to sucrose | Bitterness intensity [1, 3]: 0 point | Lingering bitter aftertaste [1, 3]: −0.125 point | Lingering sweet aftertaste [1, 3]: 0 point | Quickness in sweetness onset [1, 3]: 0.250 point | Sweetness intensity [1, 3]: 0 point | degree of sweetness, times as much as that of sucrose ([2]; according to the confirmation by the present inventors): about 0.6 times | degree of sweetness, times as much as that of sucrose ([2]; value used to design the sample solutions): 0.6 times | sweetness intensity, times as much as that of sucrose ([2]; value used to design the sample solutions of Example 5): 0.6 times
